Results reported in paper PMC8231556, “Inhibiting Endothelial Cell Function in Normal and Tumor Angiogenesis Using BMP Type I Receptor Macrocyclic Kinase Inhibitors” (Cancers, 2021).

Experiments:
Test in all cases: radiometric kinase profiling (33 PanQinase)
Format in all cases: biochemical
CDK9_cyclinT1 = biological target: T1, CDK9_cyclinT1 (Homo sapiens, UniProt P50750); conditions: read-out: Inhibitory effect (%) CDK9_cyclinT1
T1 construct: purchased Proqinase, Germany
In short: (§1)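 Enzyme/substrate mixes were incubated with [γ-33P]-ATP and compound (added as a 0.1 μM solution in 10% DMSO) at 30 °C for 60 min, then stopped with H3PO4 and washed with NaCl. 33P incorporation was scintillation-counted, and residual activity (%) was normalized to untreated control and background.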

MAP3K5 = biological target: T2, MAP3K5 (Homo sapiens, UniProt Q99683); conditions: read-out: Inhibitory effect (%) MAP3K5
T2 construct: purchased ProQinase (33PanQinase Activity Assay)
T2 sequence (Q99683 1-1374): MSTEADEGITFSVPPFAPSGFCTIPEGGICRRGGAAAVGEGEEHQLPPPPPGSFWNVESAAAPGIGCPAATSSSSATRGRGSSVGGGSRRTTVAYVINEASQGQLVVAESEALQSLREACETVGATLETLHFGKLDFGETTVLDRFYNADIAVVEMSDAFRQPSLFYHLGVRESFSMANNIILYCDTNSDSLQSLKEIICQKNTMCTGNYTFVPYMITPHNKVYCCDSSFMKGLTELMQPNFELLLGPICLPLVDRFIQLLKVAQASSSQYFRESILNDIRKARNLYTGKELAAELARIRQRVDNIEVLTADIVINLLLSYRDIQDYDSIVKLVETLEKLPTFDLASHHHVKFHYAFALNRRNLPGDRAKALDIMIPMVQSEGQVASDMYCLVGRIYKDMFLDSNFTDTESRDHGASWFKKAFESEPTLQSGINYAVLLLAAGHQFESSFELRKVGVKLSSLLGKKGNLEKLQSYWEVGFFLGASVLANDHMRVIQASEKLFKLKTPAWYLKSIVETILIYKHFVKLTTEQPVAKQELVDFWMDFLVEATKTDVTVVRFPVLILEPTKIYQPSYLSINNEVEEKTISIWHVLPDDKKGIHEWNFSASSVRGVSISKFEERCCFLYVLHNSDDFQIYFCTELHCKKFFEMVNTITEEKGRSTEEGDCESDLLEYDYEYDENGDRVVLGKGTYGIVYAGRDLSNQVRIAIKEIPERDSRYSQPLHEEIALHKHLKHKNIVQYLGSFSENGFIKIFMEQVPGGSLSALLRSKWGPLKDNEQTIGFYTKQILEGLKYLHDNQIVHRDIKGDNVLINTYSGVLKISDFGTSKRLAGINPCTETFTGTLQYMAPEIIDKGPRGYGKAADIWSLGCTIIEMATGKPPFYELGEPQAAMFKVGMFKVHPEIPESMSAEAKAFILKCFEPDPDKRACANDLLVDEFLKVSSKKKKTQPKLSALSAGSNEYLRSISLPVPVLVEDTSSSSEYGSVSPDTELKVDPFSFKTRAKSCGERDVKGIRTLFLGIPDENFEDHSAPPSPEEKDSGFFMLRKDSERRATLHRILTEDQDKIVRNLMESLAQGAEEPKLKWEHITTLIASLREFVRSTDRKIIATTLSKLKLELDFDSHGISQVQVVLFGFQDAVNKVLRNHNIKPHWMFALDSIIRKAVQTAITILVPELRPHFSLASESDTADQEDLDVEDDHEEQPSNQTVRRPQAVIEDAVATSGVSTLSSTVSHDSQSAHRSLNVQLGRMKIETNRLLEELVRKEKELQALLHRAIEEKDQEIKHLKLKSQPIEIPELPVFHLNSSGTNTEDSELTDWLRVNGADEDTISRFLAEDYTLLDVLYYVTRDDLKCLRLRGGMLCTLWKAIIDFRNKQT
In short: as §1

JAK1 = biological target: T3, JAK1 (Homo sapiens, UniProt P23458); conditions: read-out: Inhibitory effect (%) JAK1
T3 construct: purchased ProQinase (33PanQinase Activity Assay)
In short: as §1

NUAK1 = biological target: T4, NUAK1 (Homo sapiens, UniProt O60285); conditions: read-out: Inhibitory effect (%) NUAK1
T4 construct: purchased ProQinase (33PanQinase Activity Assay)
T4 sequence (O60285 1-661): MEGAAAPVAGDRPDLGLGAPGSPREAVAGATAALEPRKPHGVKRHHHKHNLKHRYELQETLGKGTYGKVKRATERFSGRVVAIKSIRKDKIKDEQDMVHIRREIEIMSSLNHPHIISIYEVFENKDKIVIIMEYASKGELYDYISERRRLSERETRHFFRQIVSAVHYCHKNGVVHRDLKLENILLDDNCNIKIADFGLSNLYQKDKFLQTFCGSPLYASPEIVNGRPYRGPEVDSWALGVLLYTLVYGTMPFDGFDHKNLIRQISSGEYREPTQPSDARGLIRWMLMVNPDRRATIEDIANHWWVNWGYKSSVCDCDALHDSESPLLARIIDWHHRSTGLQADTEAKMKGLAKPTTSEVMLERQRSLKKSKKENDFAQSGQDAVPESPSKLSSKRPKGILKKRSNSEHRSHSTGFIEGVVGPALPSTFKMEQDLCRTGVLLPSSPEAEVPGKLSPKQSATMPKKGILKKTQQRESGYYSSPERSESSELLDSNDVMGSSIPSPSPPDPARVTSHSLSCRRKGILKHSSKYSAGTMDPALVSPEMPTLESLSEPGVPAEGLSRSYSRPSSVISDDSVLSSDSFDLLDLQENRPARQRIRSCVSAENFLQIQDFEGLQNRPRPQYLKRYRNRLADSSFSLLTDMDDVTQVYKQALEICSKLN
In short: as §1

T1 sequence (P50750 whole entry): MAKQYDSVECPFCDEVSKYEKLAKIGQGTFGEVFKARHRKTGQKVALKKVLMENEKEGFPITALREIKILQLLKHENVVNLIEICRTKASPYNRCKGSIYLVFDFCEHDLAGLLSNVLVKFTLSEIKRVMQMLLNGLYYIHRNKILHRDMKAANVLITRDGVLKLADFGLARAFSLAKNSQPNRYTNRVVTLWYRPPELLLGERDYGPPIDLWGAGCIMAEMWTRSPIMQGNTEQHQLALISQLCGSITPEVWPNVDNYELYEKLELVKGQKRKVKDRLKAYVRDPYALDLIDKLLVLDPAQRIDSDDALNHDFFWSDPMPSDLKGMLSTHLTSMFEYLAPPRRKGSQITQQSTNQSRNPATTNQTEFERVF
T1 sequence (O60563 whole entry partner): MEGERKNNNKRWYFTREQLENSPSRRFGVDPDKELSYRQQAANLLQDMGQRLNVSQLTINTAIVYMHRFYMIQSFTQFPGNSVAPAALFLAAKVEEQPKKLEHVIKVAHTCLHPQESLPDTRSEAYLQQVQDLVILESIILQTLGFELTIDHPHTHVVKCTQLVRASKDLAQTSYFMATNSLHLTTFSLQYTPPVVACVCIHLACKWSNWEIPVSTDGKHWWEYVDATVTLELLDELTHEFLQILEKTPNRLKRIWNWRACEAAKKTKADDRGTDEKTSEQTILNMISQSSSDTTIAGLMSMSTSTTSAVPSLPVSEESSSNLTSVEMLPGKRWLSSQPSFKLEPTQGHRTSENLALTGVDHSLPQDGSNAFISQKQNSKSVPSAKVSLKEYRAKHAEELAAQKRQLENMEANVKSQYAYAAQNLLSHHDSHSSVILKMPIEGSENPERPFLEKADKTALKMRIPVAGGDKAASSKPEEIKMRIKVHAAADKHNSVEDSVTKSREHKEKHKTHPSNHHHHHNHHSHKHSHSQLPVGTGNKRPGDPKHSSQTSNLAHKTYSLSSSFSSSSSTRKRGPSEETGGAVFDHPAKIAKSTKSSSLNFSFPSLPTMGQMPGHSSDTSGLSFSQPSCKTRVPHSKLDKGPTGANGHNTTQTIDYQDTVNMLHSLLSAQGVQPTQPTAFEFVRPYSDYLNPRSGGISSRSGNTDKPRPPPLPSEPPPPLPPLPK
T3 sequence (P23458 whole entry): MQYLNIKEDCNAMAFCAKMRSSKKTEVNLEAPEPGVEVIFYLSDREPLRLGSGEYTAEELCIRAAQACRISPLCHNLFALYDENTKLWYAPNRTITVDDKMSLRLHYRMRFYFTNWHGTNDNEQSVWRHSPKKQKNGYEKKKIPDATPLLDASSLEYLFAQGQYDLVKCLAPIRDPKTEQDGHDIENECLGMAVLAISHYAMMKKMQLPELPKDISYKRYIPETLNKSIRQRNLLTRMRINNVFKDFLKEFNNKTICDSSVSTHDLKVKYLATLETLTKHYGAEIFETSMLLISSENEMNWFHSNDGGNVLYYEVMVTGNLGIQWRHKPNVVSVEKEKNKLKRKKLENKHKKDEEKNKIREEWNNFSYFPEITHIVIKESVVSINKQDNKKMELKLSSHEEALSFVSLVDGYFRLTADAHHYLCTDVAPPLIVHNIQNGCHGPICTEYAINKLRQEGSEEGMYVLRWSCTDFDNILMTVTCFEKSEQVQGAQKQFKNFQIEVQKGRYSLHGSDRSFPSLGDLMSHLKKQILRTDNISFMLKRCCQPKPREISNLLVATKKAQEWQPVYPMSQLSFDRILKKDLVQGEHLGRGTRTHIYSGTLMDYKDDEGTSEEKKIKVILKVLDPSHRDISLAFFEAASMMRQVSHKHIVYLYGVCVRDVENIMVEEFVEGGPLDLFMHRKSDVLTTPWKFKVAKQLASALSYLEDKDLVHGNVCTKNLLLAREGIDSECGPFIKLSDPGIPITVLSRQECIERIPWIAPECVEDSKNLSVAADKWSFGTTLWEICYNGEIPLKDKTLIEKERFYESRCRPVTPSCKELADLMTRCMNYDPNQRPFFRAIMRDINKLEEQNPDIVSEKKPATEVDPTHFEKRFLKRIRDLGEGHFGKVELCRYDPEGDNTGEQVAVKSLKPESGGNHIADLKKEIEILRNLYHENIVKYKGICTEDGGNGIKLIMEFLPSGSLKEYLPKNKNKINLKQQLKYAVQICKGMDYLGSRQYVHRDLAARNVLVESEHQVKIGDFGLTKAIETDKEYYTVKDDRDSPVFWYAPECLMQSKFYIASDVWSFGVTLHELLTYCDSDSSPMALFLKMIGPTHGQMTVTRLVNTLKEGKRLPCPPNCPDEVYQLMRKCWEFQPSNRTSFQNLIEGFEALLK

| Structure (SMILES) | inhibition at 0.1 µM (CDK9_cyclinT1) [%] | inhibition at 0.1 µM (MAP3K5) [%] | inhibition at 0.1 µM (JAK1) [%] | inhibition at 0.1 µM (NUAK1) [%] |
| --- | --- | --- | --- | --- |
| c1ccc2c(-c3cnn4cc(-c5ccc(N6CCNCC6)cc5)cnc34)ccnc2c1 [LDN-193189, reference compound] | -26.7 | 6.9 | -10.9 | -20.2 |
| CN1CCC(=O)NCCNc2ccn3ncc(c3n2)-c2cccc(c2)C1 [OD29] | -2.77 | 0.68 | -3.74 | 5.32 |
| CN1CCc2cccc(c2)Nc2nccc(n2)N2CCCc3cc(ccc32)C1 [OD16] | 54.2 | -11.3 | 23.1 | 74.3 |
